Measured values as given in US4200575A, “7[(2-Thiazolyl)-2-(oxoimino)acetamido]cephalosporin derivatives” (Takeda Chemical Industries, Ltd., priority 1977, dated 1980).

How the values were obtained:
Test in all cases: Minimal inhibitory concentration (M.I.C.), agar dilution method
Details in all cases: TSA, inoculum 10^7 /ml
[1] = test system: K. pneumoniae DT; format: cell-based, Klebsiella pneumoniae
Excerpt: (§1) (a) Determination of minimal inhibitory concentrations (Tables 1 to 8):
(§2) Procedure: agar dilution method

[2] = test system: K. pneumoniae GN 3835; format: cell-based, Klebsiella pneumoniae
Excerpt: as §1, §2

[3] = test system: E. coli 0-111; format: cell-based, Escherichia coli
Excerpt: The minimal inhibitory concentrations (M.I.C.) of some representative cephalosporin derivatives of this invention as produced by the procedures described in those examples and the minimal inhibitory concentrations of cephalothin [sodium 7-(2-thienylacetamido)-3-acetoxymethyl-3-cephem-4-carboxylate], cephaloridine [7-(2-thienylacetamido)-3-(1-pyridyl)methyl-3-cephem-4-carboxylic acid betaine] and cefazolin [sodium 7-(1H-tetrazol-1-yl)acetamido-3-(2-methyl-1,3,4-thiadiazol-5-yl)thiomethyl-3-cephem-4-carboxylate], which are among the clinically established and commercially available cephalosporins (as described, for example, in the New England Journal of Medicine 294, 24, 1976 and Journal of Pharmaceutical Science 64, 1899, 1975), both against various bacteria, as well as the therapeutic effects of some respresentative cephalosporin derivatives of this invention and of cephaloridine in infected mice, are shown in tables.
as §1, §2

[4] = test system: P. vulgaris IFO 3988; format: cell-based, Proteus vulgaris
Excerpt: as §1, §2

[5] = test system: P. vulgaris GN 4413; format: cell-based, Proteus vulgaris
Excerpt: as §1, §2

[6] = test system: S. marcescens TN 24; format: cell-based, Serratia marcescens
Excerpt: as §1, §2

[7] = test system: S. marcescens IFO 12648; format: cell-based, Serratia marcescens
Excerpt: as §1, §2

[8] = test system: P. morganii IFO 3168; format: cell-based, Proteus morganii
Excerpt: as §1, §2

[9] = test system: E. coli T-7; format: cell-based, Escherichia coli
Excerpt: as §1, §2

[10] = test system: E. coli NIHJ JC-2; format: cell-based, Escherichia coli
Excerpt: as §1, §2

[11] = test system: S. aureus 1840; format: cell-based, Staphylococcus aureus
Excerpt: as §1, §2

[12] = test system: S. aureus 209P; format: cell-based, Staphylococcus aureus
Excerpt: as §1, §2

[13] = test system: E. cloacae TN 1282; format: cell-based, Enterobacter cloacae
Excerpt: as §1, §2

[14] = test system: C. freundii GN 99; format: cell-based, Citrobacter freundii
Excerpt: as §1, §2

[15] = test system: C. freundii GN 1706; format: cell-based, Citrobacter freundii
Excerpt: as §1, §2

[16] = test system: P. rettgeri GN4733; format: cell-based, Proteus rettgeri
Excerpt: as §1, §2

[17] = test system: P. rettgeri TN 338; format: cell-based, Proteus rettgeri
Excerpt: as §1, §2

[18] = test system: P. mirabilis GN 4359; format: cell-based, Proteus mirabilis
Excerpt: as §1, §2

SMILES	minimal inhibitory concentration (M.I.C.) [1]	minimal inhibitory concentration (M.I.C.) [2]	minimal inhibitory concentration (M.I.C.) [3]	minimal inhibitory concentration (M.I.C.) [4]	minimal inhibitory concentration (M.I.C.) [5]	minimal inhibitory concentration (M.I.C.) [6]	minimal inhibitory concentration (M.I.C.) [7]	minimal inhibitory concentration (M.I.C.) [8]	minimal inhibitory concentration (M.I.C.) [9]	minimal inhibitory concentration (M.I.C.) [10]	minimal inhibitory concentration (M.I.C.) [11]	minimal inhibitory concentration (M.I.C.) [12]	minimal inhibitory concentration (M.I.C.) [13]	minimal inhibitory concentration (M.I.C.) [14]	minimal inhibitory concentration (M.I.C.) [15]	minimal inhibitory concentration (M.I.C.) [16]	minimal inhibitory concentration (M.I.C.) [17]	minimal inhibitory concentration (M.I.C.) [18]
CNC(=O)O/N=C(\C(=O)NC1C(=O)N2C(C(=O)O)=C(CSc3nnc(CC(N)=O)s3)CSC12)c1csc(=N)[nH]1 (centres unmarked) [Example IV - 6]	≤ 0.2	0.39	≤ 0.2	≤ 0.2	25	3.15	3.13	≤ 0.2	3.13	≤ 0.2	3.13	1.56	3.13	≤ 0.2	≤ 0.78	0.39	≤ 0.2	0.39
CCCNC(=O)O/N=C(\C(=O)NC1C(=O)N2C(C(=O)O)=C(COC(C)=O)CSC12)c1csc(=N)[nH]1 (centres unmarked) [Example II - 12]	0.1	0.39	0.024	0.39	12.5	12.5	6.25	0.78	3.13	0.39	1.56	1.56	6.25	0.39	0.78	0.2	≤ 0.012	0.1
CNC(=O)O/N=C(\C(=O)NC1C(=O)N2C(C(=O)O)=C(CSc3nnnn3CCO)CSC12)c1csc(=N)[nH]1 (centres unmarked) [Example IV - 4]	≤ 0.2	0.39	≤ 0.2	≤ 0.2	12.5	3.13	3.13	≤ 0.2	3.13	≤ 0.2	3.13	3.13	3.13	≤ 0.2	0.39	0.39	≤ 0.2	≤ 0.2
CNC(=O)O/N=C(\C(=O)NC1C(=O)N2C(C(=O)[O-])=C(C[n+]3ccc(C(N)=O)cc3)CSC12)c1csc(=N)[nH]1 (stereo not drawn) [Example IV - 2, 7-[2-(2-imino-4-thiazolin-4-yl)-2-methylcarbamoyloximinoacetamido]-3-(4-carbamoylpyridiniummethyl)-3-cephem-4-carboxylate (syn-isomer)]	0.39	1.56	0.2	0.78	12.5	3.13	3.13	0.78	6.25	0.78	3.13	3.13	3.13	0.78	1.56	0.78	0.1	1.56
CC(=O)OCC1=C(C(=O)O)N2C(=O)C(NC(=O)/C(=N\OC(=O)NC(C)C)c3csc(=N)[nH]3)C2SC1 (centres unmarked) [Example II - 16]	0.1	0.78	0.024	0.39	25	25	6.25	0.78	3.13	0.39	3.13	1.56	6.25	0.39	0.78	0.2	≤ 0.012	0.1
CNC(=O)O/N=C(\C(=O)NC1C(=O)N2C(C(=O)O)=C(CSc3nnc(C)o3)CSC12)c1csc(=N)[nH]1 (centres unmarked) [Example IV - 10]	≤ 0.2	0.78	≤ 0.2	0.39	25	6.25	6.25	0.39	6.25	0.39	3.13	1.56	3.13	0.39	0.78	0.78	≤ 0.2	0.39
CNC(=O)O/N=C(\C(=O)NC1C(=O)N2C(C(=O)O)=C(CSc3cnn[nH]3)CSC12)c1csc(=N)[nH]1 (centres unmarked) [Example IV - 9]	≤ 0.2	0.78	≤ 0.2	0.39	25	6.25	6.25	0.78	3.13	0.78	3.13	3.13	6.25	0.78	1.56	1.56	≤ 0.2	0.39
Cc1nnc(SCC2=C(C(=O)[O-])N3C(=O)C(NC(=O)Cn4cnnn4)[C@H]3SC2)s1.[Na+] (some centres unmarked) [Cefazolin, sodium 7-(1H-tetrazol-1-yl)acetamido-3-(2-methyl-1,3,4-thiadiazol-5-yl)thiomethyl-3-cephem-4-carboxylate, reference compound]	1.56	6.25	1.56	3.13	> 100	> 100	> 100	100	50	1.56	1.56	0.39	–	12.5	> 100	100	≤ 0.2	6.25
